Here are results for four compounds from article PMC9416163, “Antiproliferative Copper(II) Complexes Bearing Mixed Chelating Ligands: Structural Characterization, ROS Scavenging, In Silico Studies, and Anti-Melanoma Activity” (Pharmaceutics, 2022).

The subject of one data set is B16 cells. Nature of the data set: Cell cycle analysis (PI, flow cytometry). The data set is classed as cell-based, mouse. The following applies: 24 h; for changes in the cell cycle: 1 μM or 5 μM; for cells in the G2/M phase: untreated 15.53%; for cells in the S phase: untreated 25.65%; for cells in the G0/G1 phase: untreated 49.70%. As for the experimental part:
Twenty-four hours after treatment of B16 cells with concentrations of 1 and 5 μM of each compound, cells were harvested and fixed with pre-chilled 70% ethanol solution at −20 °C. Cells were incubated with 0.2 mg/mL RNAse and 20 μg/mL propidium iodide (PI) in a 0.1% Triton TX-100 solution, in the dark, for 30 min at 37 °C. Cell cycle distribution was analyzed using a Beckman Coulter Cell Lab Quanta SC Flow Cytometer (Indianapolis, IN, USA), and the data were analyzed using the Quanta Analysis software.
(In flow cytometry, cells or beads pass a laser one at a time.)

Data set [1] in a line: EPR, interaction with superoxide (KO2). The following applies: 100 µM in DMSO, KO2 added. The method, then:
The C, N, and H chemical analyses were carried out with a EuroEA elemental analyzer. Fourier Transform Infrared spectroscopy (FTIR) spectra were recorded with a Tensor 37 spectrometer (Bruker, Billerica, MA, USA) in the 400–4000 cm^−1 range. A Jasco V 670 spectrophotometer (Jasco, Easton, MD, USA) with Spectralon as a standard in the 200–1500 nm range was used to record the UV-Vis spectra in solid-state. A continuous wave X-Band Bruker EMX plus EPR spectrometer (Bruker, Karlsruhe, Germany) equipped with a Bruker X-SHQ 4119HS-W1 X-Band resonator was used for the X-band EPR measurements. The parameters for the X-Band measurements were set as follows: microwave frequency 9.879 GHz, microwave power 6.325 mW, modulation amplitude 0.2 mT, conversion time 74.17 ms, and time constant 40.96 ms at 35 scans. All measurements were carried out at room temperature. Simultaneous Thermogravimetric/Differential Scanning Calorimetry–Mass spectroscopy (TG-DSC/MS) measurements were performed on a TGA/DSC1 Thermal Analyser (Mettler Toledo, Schwarzenbach, Switzerland), coupled to a Vacuum Thermostar Mass Spectrometer (Pfeiffer, Asslar, Germany) under the following conditions: isothermal conditioning at 25 °C, temperature range from 25 to 800 °C, heating rate 5 °C/min, dynamic air atmosphere with a flow rate of 100 mL/min, sample masses of 2–4 mg, 150 μL platinum crucible; empty crucible served as reference. The blank curve was subtracted. Evolved gasses were introduced into the Mass Spectrometer via a 75 cm heated capillary.
In contrast, all compounds in the presence of HO⋅ radicals show the trapping ability of these radicals, as indicated by the additional EPR signals in all four EPR spectra.

The subject of data set [2] is B16 murine melanoma cells. Nature of the data set: MTT cell viability assay on B16 cells. It counts as cell-based, mouse. The following applies: for IC50: MTT. As for the experimental part: (§1) Human fibroblast cells (BJ-ATCC CRL-2522, USA) were grown in minimal essential medium (MEM) supplemented with 2 mM L-Glutamine, 10% fetal calf serum (FCS), 100 units/mL of penicillin, and 100 µg/mL of streptomycin at 37 °C in a humidified incubator under an atmosphere containing 5% CO2. Mouse melanoma cells (B16-ATCC CRL-6475, USA) were grown in DMEM (Dulbecco’s Modified Eagle Medium) supplemented with reagents like MEM. All cell cultivation media and reagents were purchased from Biochrom AG (Berlin, Germany) and Sigma-Aldrich (Darmstadt, Germany).
(§2) Cell viability was evaluated using the MTT assay (3-(4,5-dimethylthiazol-2-yl)-2,5-diphenyltetrazolium bromide) as previously described. Briefly, BJ and B16 cells were seeded in 96-well plates at densities of 10,000 cells/well and 7000 cells/well and further cultured in the medium for 24 h. The next day, the investigated compounds were added at a concentration of 1 to 25 μM for 24 and 48 h. The cells cultivated in medium without the studied samples served as negative controls. After incubation for the desired times, the medium was replaced with MTT solution (1 mg/mL) and incubated for an additional 4 h at 37 °C. Finally, the medium was collected, and DMSO was used to dissolve the insoluble formazan product. A Mithras 940 (Berthold, Bad Wildbad, Germany) plate reader was used to measure the absorbance of the samples at 570 nm. The data were corrected for background, and the percentage of viable cells was obtained using the following equation:Cell viability = [(A570 of treated cells)/(A570 of untreated cells)] × 100 (%)
(§3) Half-maximal inhibitory concentration (IC50) was determined by fitting the data with a sigmoidal logistic function using Origin 8.1 (Microcal Inc., Northampton, MA, USA) software.
Background: Formazan colour is commonly taken as a measure of viable cells.

The test system of the next data set is MKN-45 cells. Also noted: method as in doi:10.1080/00958972.2018.1447668. The conditions noted are these: 48 h of incubation; cited from earlier work.
Data set [3] relates to Human fibroblast cells (BJ). Put plainly: MTT cell viability assay on BJ cells. It counts as cell-based. The following applies: for IC50: MTT. As for the experimental part:
as §1, §2, §3

Each structure is given as a SMILES string.

For the compound `CC(=O)C=C([O-])c1ccccc1.[Cu+2].[O-][Cl+3]([O-])([O-])[O-].c1ccc(-c2ccccn2)nc1` [Compound (3), [Cu(bpy)(bzac)]ClO4], the “changes in the cell cycle” value in the data set on B16 cells is “no changes in the cell cycle were observed”. In addition, the “response to O2⋅^− radicals (EPR)” value in data set [1] is given as “exhibit a scavenging response”. The IC50 (in general, the concentration that gives 50% inhibition) in data set [2] (24 h) was determined as 8.28 µM; in data set [2] (48 h), 4.65 µM; in data set [3] (24 h), 11 µM; in data set [3] (48 h) it was 10.4 µM. Moreover, the “cytotoxicity compared with 5-fluorouracil” value with MKN-45 cells is “significantly more cytotoxic against MKN-45 cells than 5-fluorouracil”.

For the compound `CC(=O)C=C([O-])c1ccccc1.O=[N+]([O-])[O-].[Cu+2].c1ccc(-c2ccccn2)nc1` [Compound (4), [Cu(bpy)(bzac)(NO3)]], the “changes in the cell cycle” value in the data set on B16 cells is on record as “no changes in the cell cycle were observed”. Also, in data set [1], the “response to O2⋅^− radicals (EPR)” value is recorded as “neither scavenging nor a trapping ability toward superoxide radicals”. In addition, the IC50 in data set [2] (24 h) worked out at 6.43 µM; in data set [2] (48 h) it was 4.7 µM; in data set [3] (24 h) it was 11.7 µM; in data set [3] (48 h), 10.3 µM.

As to `CC(=O)C=C([O-])c1ccccc1.[Cu+2].[O-][Cl+3]([O-])([O-])[O-].c1cnc2c(c1)ccc1cccnc12` [Compound (1), [Cu(phen)(bzac)(ClO4)]], the “cells in the sub-G1 phase” value in the data set on B16 cells (5 μM, untreated 9.11%) is given as 18.43%. Moreover, the “cells in the G2/M phase” value with B16 cells (5 μM) was found to be 5.59%. The “cells in the S phase” value in the data set with B16 cells (5 μM) is 15.82%. Further, the “cells in the G0/G1 phase” value in the data set on B16 cells (5 μM) is 60.14%. In addition, in data set [1], the “response to O2⋅^− radicals (EPR)” value was “exhibit a scavenging response”. The cell viability (as a rule, the share of living cells, or the viability signal relative to a control) in data set [2] (10 μM) was 10%; in data set [2] (up to 25 μM), “about 5%”; in data set [3] (10 μM) it was 20%; in data set [3] (up to 25 μM), “about 15%”. The IC50 in data set [2] (24 h) is 3.48 µM; in data set [2] (48 h) it was 2.2 µM; in data set [3] (24 h), 3.95 µM; in data set [3] (48 h), 2.8 µM. The “cytotoxicity compared with 5-fluorouracil” value in the data set with MKN-45 cells is reported as “significantly more cytotoxic against MKN-45 cells than 5-fluorouracil”.

As for `CC(=O)C=C([O-])c1ccccc1.O.O=[N+]([O-])[O-].[Cu+2].c1cnc2c(c1)ccc1cccnc12` [Compound (2), [Cu(phen)(bzac)(NO3)]⋅H2O], in the data set on B16 cells (5 μM), the “cells in the G2/M phase” value came out at 10.78%. In addition, in the data set on B16 cells (5 μM), the “cells in the S phase” value was found to be 13.81%. For the same compound, in the data set with B16 cells (5 μM), the “cells in the G0/G1 phase” value is reported as 54.90%. Further, the “response to O2⋅^− radicals (EPR)” value in data set [1] is listed as “exhibit a scavenging response”. The cell viability in data set [2] (10 μM) was 10%; in data set [2] (up to 25 μM), “about 5%”; in data set [3] (10 μM), 20%; in data set [3] (up to 25 μM) it was “about 15%”. In addition, the IC50 in data set [2] (24 h) came out at 2.65 µM; in data set [2] (48 h) it was 1.44 µM; in data set [3] (24 h), 4.85 µM; in data set [3] (48 h), 2.48 µM.
